Assay [1] concerns the target His6-TEV-PDGFRβ (557-1016) (Homo sapiens (Human), UniProt P09619). Nature of the assay: PDGFRβ HTRF Assay. Format: biochemical. To be noted: read-out: PDGFR HTRF IC50. The method, then:
Instrumentation: a. Compound liquid handling: LabCyte Echo; b. Reagent liquid handling: Thermo Scientific Multidrop Combi; c. BMG PHERAStar multilabel plate reader.
Protein Reagent: His6-TEV-PDGFRβ Protein Prep prepared at Accelagen.
(§1) II. Methods and Procedures
Assay buffer stock solution, contains 50 mM Hepes, 10 mM MgCl2, 1 mM EGTA, and 0.01% Brij-35, 0.01% ovalbumin, 2 mM DTT at pH 7.5, in molecular biology grade water. Store at room temperature.
DTT, 2 M in molecular biology grade water, store at −20° C. in aliquots.
Ovalbumin, 10% or 100 mg/mL, prepare fresh on experimental day.
PDGFRβ, 116 μM (PDGFRb_08 Prep 02), produced at Accelagen. Store at −80° C. in aliquots.
TK-biotin peptide, […] in molecular biology grade water, store at −20° C. in aliquots.
ATP, 100 mM in molecular biology grade water, store at −20° C. in aliquots.
HTRF KinEASE-TK kit: Allow the contents of the Cisbio kit to warm up to room temperature before use. This kit contains HTRF detection buffer, TK-Antibody labeled with Eu^3+-cryptate, TK-substrate biotin and Streptavidin-XL665.
TK Substrate-Biotin, reconstitute 500 μg lyopholized with 574 μL molecular biology grade water to prepare a 500 μM stock; After use, aliquot the rest and store at −20° C.
TK Antibody-Cryptate, reconstitute lyophilized with 1 mL of molecular biology grade water (100× solution) then add 99 mL detection buffer to prepare a ready to use TK-antibody-cryptate solution; the concentration of the TK-antibody-cryptate reagent is not known. After use, aliquot the rest and store at −20° C.
Streptavidin-XL665, reconstitute 3 mg lyophilized with 3 mL molecular biology grade water to prepare a 1 mg/mL or 16.67 μM stock; MW=60 kDa; After use, aliquot the rest and store at −20° C.
(§2) Freshly Prepared Solutions:
Assay buffer. Dilute 5× Kinase buffer 5-fold with molecular biology grade water and add DTT to 2 mM and ovalbumin to 0.1 mg/mL (or 0.01%).
2× protein solution. Make a working solution of […] PDGFRβ in assay buffer. Keep on ice until use to maintain enzyme stability.
2× substrate solution. Make a working solution of 1.6 mM ATP and 1 μM TK-substrate biotin peptide in assay buffer.
3× quench/detection solution. Make a working solution of 0.1875 μM SA-XL665 and the TK-antibody cryptate diluted by 12 of total quench/detection volume in assay buffer.
Keep final streptavidin/biotin ratio at 1 to 8.
Example of 3× quench/detection solution preparation: 8 mL total volume.
TK antibody-cryptate in detection buffer—4000 μL
The kinase reaction is stopped by the addition of the detection reagents which contain EDTA (detection step).
Assay in white ProxiPlate 384-well
Step 1. Dispensing inhibitors/DMSO and low control: Using the ECHO 555 acoustic dispenser, spot desired compound serial dilutions in DMSO, NEAT DMSO to represent the uninhibited enzyme control, and 10 μM final [imatinib] to the represent the 100% inhibited enzyme control
Step 2. PDGFRβ E+I pre-incubation: Add 2 μL 2× protein solution to columns 1-24 using the Multidrop Combi. Centrifuge at 1000 rpm for 1 min. Incubate 30 min at RT
Step 2. Enzymatic reaction: Add 2 μL substrate solution to columns 1-24 to initiate the reaction using the Multidrop Combi; cover/seal the assay plate to reduce evaporation. Centrifuge at 1000 rpm for 1 min. Incubate at room temperature for 3 hours.
Step 3. Quench/Detection: Add 2 μl 3× quench/detection solution to columns 1-24 using the Multidrop Combi; cover/seal the plate. Centrifuge 1 min 1000 rpm. Incubate at RT for 60 min. Read the plate in PHERAstar (or similar instrument) on HTRF setting at excitation 337 nm—dual emission—665/620 nm ratio.
(§3) III. Calculations and Formulas
HTRF ratio values calculated by the instrument (Ratio is acceptor counts/donor counts*10,000) is exported from the plate reader and used in data analysis. […] Assay statistics can include Robust Z′ and Signal to Background.
% Inhibition Calculation: Percent inhibition will be calculated for sample wells based on the equation: […]
For orientation: TR-FRET usually uses a lanthanide donor and a delayed reading to cut background.

In assay [2] the target is PDGFRβ (Rattus norvegicus (Rat), UniProt Q05030). In words: PDGFRβ Cellular Assay (PDGFRb P-Y751 HTRF in A10 cells stimulated with PDGF-BB). Format: cell-based. As to conditions: PDGFR Cellular IC50. The method, then: as §1
Sequence of PDGFRβ (Q05030 32-1097): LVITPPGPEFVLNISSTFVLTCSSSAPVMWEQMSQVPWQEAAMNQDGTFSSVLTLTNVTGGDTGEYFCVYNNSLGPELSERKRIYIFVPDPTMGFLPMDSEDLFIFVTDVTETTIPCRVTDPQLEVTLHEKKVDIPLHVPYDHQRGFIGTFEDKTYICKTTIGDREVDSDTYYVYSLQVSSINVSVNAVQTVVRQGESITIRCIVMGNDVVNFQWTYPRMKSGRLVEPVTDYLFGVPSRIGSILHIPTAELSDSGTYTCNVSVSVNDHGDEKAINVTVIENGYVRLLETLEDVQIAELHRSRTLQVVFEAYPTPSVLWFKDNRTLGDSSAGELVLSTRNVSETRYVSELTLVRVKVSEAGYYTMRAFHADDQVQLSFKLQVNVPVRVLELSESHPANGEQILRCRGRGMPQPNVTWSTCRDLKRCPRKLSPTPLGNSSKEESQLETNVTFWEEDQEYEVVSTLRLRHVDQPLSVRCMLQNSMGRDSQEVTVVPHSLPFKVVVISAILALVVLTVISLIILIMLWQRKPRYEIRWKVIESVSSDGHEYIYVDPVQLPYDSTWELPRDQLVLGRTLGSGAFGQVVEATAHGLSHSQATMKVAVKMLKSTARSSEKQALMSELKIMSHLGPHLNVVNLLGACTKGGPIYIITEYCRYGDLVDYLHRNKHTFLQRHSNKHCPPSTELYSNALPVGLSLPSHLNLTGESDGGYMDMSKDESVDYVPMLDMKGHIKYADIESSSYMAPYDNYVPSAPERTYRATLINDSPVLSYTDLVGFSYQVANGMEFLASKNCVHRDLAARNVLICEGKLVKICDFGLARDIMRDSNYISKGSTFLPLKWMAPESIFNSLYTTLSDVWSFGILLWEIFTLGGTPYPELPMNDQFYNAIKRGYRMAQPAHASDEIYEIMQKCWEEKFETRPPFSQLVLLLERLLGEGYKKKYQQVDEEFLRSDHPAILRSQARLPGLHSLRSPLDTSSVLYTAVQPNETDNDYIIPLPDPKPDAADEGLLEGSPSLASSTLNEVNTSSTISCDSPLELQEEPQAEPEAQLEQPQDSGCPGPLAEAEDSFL
Cell Culture and Preparation: Cells are cultured according to ATCC procedure (5) with the addition of the antibiotic penicillin-streptomycin. If working from frozen, cells should be thawed according to ATCC procedure. Depending on the cell density of frozen vial, cells will need time to recover from thaw. An 80% confluent T75 flask should be enough for one 384 well plate.
Stock Solutions: Rat PDGFBB. A 100 ug/mL stock is prepared by reconstituting 50 ug in 500 uL of 4 mM HCl and 0.1% BSA. It can be stored for a month at 4° C., or aliquoted out and frozen in the −20/−80° C. to avoid multiple free-thaw cycles.
as §2
1× Cisbio cell lysis buffer. The cell lysis buffer is diluted 4-fold with molecular grade water. The blocking agent is then diluted 25-fold in the diluted lysis buffer.
Antibody solutions. Equal amounts d2 and cryptate antibody are diluted 20-fold in detection buffer.
Rat PDGFBB. A working stock of 100 ng/mL is created from the stock solution in 10% FBS culture media.
Step 1: Plating Cells: Media from the A10 cell flask is aspirated. The cells are rinsed with PBS and then trypsinized to disperse the cell layer. The cells are then pelleted are resuspended to 1.25e5 cells/mL. […] Plates are covered and placed in the incubator (37° C. 5% CO2) overnight to allow cells to adhere.
Step 2: Compound Dispense: Approximately 18 hours after plating, dispense 40 nL compound onto cells using Echo. Column 12 is the neutral control DMSO, column 24 is the inhibitor control 10 mM Imatinib (10 uM final assay concentration). The plate is returned to the incubator for 3 hours.
After 10 minutes the media is removed by flicking the plate.
Step 4: Cell lysis and antibody addition: 20 uL lysis buffer per well is added to the plate via Tempest. 5 uL antibody solution is added per well via the Tempest. The plate is placed on the shaker at 230 rpm for 1 hour at room temperature.
Step 5: Detection: The plate is read using the HTRF module on the BMG Pherastar. Data is analyzed using Genedata Screener.
as §3
% Inhibition: % Inhibition=(NC−sample)/(NC−PC)*100 where NC is the mean of negative control (reactions without inhibitor), and PC is the mean of positive control (10 μM imatinib).
IC50 values are determined from a 4-parameter fit, using the following equation: Y=Bottom+(Top−Bottom)/(1+10((Log IC50−X)*Hill slope)), where X=log10 of the compound concentration; top can be defined by PC; bottom defined by NC.

The target of assay [3] is VEGFR2, unphosphorylated (Homo sapiens (Human), UniProt P35968). Nature of the assay: VEGFR ADP GLO Assay. Format: biochemical. The method, then:
as §1
Assay buffer stock contains 50 mM HEPES pH7.5, 10 mM MgCl2, 0.01% Brij-35, and 1 mM EGTA.
Unphosphorylated VEGFR2. […] Store at −80° C. in aliquots.
Sonicate 10 mg/ml Srctide solution for 10 minutes and then vacuum filter.
Freshly Prepared Solutions
2× kinase solution. Make a working solution of 10 nM unphosphorylated VEGFR2 in Assay buffer. Vacuum filter 2× kinase solution prior to running assay. Keep on ice until use.
2× substrate/ATP solution. Make a working solution of 2 mg/mL srctide and 2.4 mM ATP in Assay buffer. Keep on ice until use.
Step 1. Dispensing inhibitors/controls: Using Echo, dispense 10 nL/well compound serial dilutions in DMSO to columns 1-22 (in 384-well plates) or columns 1-44 (in 1536-well plates). Dilution series=11 pt, 3-fold dilutions. The top compound concentration in the source plate is 4 mM. The top compound concentration in the assay plate is 10 uM. Using Echo, dispense 10 nl/well DMSO to column 23 (in 384-well plates) or columns 45-47 (in 1536-well plates). […] These wells will serve as positive control wells.
Step 2. Pre-incubation of inhibitors with kinase: Add 2 μL/well 2× kinase solution. Centrifuge at 1000 rpm for 1 min. Incubate at room temperature for 30 min.
Step 3. Kinase cascade reaction: Add 2 μL/well 2× substrate/ATP solution to initiate kinase reactions. Centrifuge at 1000 rpm for 1 min. Incubate at room temperature for 180 min.
Final concentrations of components in the assay:
Step 4. Quench: Add 2 uL/well ADP Glo Reagent+0.05% CHAPS. Centrifuge at 1000 rpm for 1 min; Incubate at room temperature for one hour.
Step 5. Detection: Add 2 uL/well Kinase Detection Reagent+0.05% CHAPS. Centrifuge at 1000 rpm for 1 min; Incubate at room temperature for 1 hour; Read Luminescence on a plate reader.
as §3
IC50 values are determined from a 4-parameter fit, using the following equation: Y=Bottom+(Top−Bottom)/(1+10^(Log IC50-X)*Hill slope) where X=log10 of the compound concentration; top can be defined by PC; bottom defined by NC.
In general terms: ADP-Glo first removes unused ATP, then detects ADP through luciferase.

The IC50 is the concentration that gives 50% inhibition.

A value given as a limit tells only on which side of the number the result lay.

Sequence of VEGFR2, unphosphorylated (P35968 20-1356): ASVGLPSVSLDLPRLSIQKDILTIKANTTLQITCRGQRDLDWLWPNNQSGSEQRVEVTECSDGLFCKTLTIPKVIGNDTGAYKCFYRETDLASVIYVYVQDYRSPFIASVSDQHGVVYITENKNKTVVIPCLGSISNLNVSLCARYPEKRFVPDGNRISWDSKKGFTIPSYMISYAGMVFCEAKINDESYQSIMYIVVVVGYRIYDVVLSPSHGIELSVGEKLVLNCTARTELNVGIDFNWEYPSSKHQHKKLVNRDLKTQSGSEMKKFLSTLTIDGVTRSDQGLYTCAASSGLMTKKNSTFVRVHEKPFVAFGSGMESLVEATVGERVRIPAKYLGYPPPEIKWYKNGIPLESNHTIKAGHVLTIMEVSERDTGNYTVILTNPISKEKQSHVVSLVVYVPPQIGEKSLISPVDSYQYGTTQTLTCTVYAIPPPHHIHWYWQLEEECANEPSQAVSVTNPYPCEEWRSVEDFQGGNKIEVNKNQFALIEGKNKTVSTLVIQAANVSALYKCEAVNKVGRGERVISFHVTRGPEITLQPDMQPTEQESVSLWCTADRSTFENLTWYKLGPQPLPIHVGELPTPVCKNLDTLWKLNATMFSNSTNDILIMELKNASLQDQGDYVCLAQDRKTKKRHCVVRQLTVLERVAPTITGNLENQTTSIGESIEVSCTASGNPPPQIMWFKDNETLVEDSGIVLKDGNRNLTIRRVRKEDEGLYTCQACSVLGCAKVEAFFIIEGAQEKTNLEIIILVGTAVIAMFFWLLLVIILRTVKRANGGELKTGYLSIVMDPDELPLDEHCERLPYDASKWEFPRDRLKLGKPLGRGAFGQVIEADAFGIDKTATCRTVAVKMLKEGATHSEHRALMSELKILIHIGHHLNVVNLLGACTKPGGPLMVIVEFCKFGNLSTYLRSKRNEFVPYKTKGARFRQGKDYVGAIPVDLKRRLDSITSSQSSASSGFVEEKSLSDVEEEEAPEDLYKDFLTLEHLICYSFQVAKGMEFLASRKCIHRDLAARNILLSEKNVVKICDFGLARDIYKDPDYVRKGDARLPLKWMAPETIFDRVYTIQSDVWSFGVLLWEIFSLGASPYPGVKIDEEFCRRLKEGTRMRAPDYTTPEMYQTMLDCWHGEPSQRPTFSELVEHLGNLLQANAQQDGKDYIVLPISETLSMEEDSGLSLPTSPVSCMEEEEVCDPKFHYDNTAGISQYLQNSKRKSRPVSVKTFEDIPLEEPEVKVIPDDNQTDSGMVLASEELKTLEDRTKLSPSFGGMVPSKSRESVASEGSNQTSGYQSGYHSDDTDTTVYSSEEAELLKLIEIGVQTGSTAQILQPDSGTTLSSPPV
Sequence of His6-TEV-PDGFRβ (557-1016) (P09619 557-1016): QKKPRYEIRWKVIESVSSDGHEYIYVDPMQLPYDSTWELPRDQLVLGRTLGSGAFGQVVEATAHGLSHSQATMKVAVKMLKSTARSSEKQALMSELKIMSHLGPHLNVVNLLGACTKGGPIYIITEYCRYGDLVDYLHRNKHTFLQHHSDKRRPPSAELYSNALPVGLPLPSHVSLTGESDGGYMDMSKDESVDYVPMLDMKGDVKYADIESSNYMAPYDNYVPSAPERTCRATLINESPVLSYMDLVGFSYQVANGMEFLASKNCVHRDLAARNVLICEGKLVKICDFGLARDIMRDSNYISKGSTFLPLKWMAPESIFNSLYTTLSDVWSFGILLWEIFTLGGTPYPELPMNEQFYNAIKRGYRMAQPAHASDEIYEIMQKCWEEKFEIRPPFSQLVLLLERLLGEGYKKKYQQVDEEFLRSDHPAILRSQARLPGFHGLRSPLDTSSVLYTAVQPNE

For the compound `Cc1cc(C(=O)NCCN2CCCC23CCCC3)sc1NC(=O)c1cnn2cc(-c3cnn(C)c3)sc12` [Example 196, N-(5-((2-(1-azaspiro[4.4]nonan-1-yl)ethyl)carbamoyl)-3-methylthiophen-2-yl)-2-(1-methyl-1H-pyrazol-4-yl)pyrazolo[5,1-b]thiazole-7-carboxamide], the IC50 was 1.4 nM in assay [1], 85.8 nM in assay [2] and greater than 7500 nM in assay [3].
On to `Cc1ncc(NC(=O)CN2CC(C)(C)C2)cc1NC(=O)c1cnn2cc(-c3c(C)noc3C)sc12` [Example 364, N-(5-(2-(3,3-dimethylazetidin-1-yl)acetamido)-2-methylpyridin-3-yl)-2-(3,5-dimethylisoxazol-4-yl)pyrazolo[5,1-b]thiazole-7-carboxamide], for which the IC50 was 0.8 nM in assay [1], 10.3 nM in assay [2] and greater than 7500 nM in assay [3].

The values above are taken from patent publication US20240109917A1 (ACTELION PHARMACEUTICALS LTD, priority 2020, published 2024).
